Source: patent US20230065953A1, “NOVEL HETEROARYL-TRIAZOLE COMPOUNDS AS PESTICIDES” (Bayer Aktiengesellschaft, priority 2019, published 2023)

How the values were obtained:
Format in all cases: in vivo
[1] = system: adult engorged female ticks (Rhipicephalus microplus); assay: Rhipicephalus (Boophilus) microplus injection test; settings: 168 h, 4 μg/animal, egg deposition after 7 days, read-out: efficacy (infertile eggs)
In short: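 Five adult engorged female ticks each injected into the abdomen with 1 μL of compound in DMSO, then kept in a climate chamber. Fertile egg deposition assessed after 7 days, with unclear eggs held until hatching around 42 days; efficacy 100% means all eggs infertile, 0% all fertile.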

[2] = system: brown planthopper (Nilaparvata lugens); assay: Nilaparvata lugens spray test; settings: 96 h, rice plants, after 4 days
Description: Nilaparvata lugens—Spray Test • Solvent: 78.0 parts by weight of acetone • 1.5 parts by weight of dimethylformamide • Emulsifier: alkylarylpolyglycol ether
To produce a suitable preparation of active compound, 1 part by weight of active compound is mixed with the stated amount of solvents and is diluted with water, containing an emulsifier concentration of 1000 ppm, to the desired concentration. Further test concentrations are prepared by dilution with emulsifier containing water.
Rice plants (Oryza sativa) are sprayed with a preparation of the active ingredient of the desired concentration and the plants are infested with the brown planthopper (Nilaparvata lugens).
After 4 days mortality in % is determined. 100% means all planthoppers have been killed and 0% means none of the planthoppers have been killed.

[3] = system: larvae of the banded cucumber beetle (Diabrotica balteata); assay: Diabrotica balteata spray test; settings: 168 h, 100 g/ha (=32 μg/well), wheat seeds, after 7 days, read-out: efficacy (seedling growth)
In short: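 Efficacy in % was read 7 days after infesting with 10-20 larvae per unit. Before infestation, 1-day-germinated wheat seedlings (5 per well) were sprayed with the active ingredient, formulated in acetone and dimethylformamide plus emulsifier and diluted with water containing emulsifier.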

[4] = system: adult cat fleas (Ctenocephalides felis); assay: Ctenocephalides felis in-vitro contact test, adult cat flea; settings: 5 μg/cm^2 (=500 g/ha), after 48 hours
In short: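 After 48 h of room-temperature exposure in tubes whose walls carried dried compound residue (5 μg/cm^2, from 900 ppm acetone solution), adult cat fleas (5-10 per tube) were heat-challenged at 45-50° C up to 5 min. Fleas unable to climb away were counted dead or moribund, expressed as % efficacy.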

[5] = system: adult brown dog ticks (Rhipicephalus sanguineus); assay: Rhipicephalus sanguineus in-vitro contact test with adult brown dog ticks; settings: 5 μg/cm^2 (=500 g/ha), after 48 hours, read-out: efficacy (ticks dead or moribund)
Description: Rhipicephalus sanguineus—In-Vitro Contact Tests with Adult Brown Dog Ticks
9 mg compound is solved in 1 mL acetone and diluted with acetone to the desired concentration. 250 μL of the test solution is filled in 25 mL glass test tubes and homogeneously distributed on the inner walls by rotation and tilting on a shaking device (2 h at 30 rpm). With a compound concentration of 900 ppm, an inner surface of 44.7 cm^2 and a homogeneous distribution, a dose of 5 μg/cm^2 is achieved.
After the solvent has evaporated, each test tube is filled with 5-10 adult brown dog ticks (Rhipicephalus sanguineus), closed with a perforated lid and incubated in a lying position at room temperature and relative humidity. After 48 hours efficacy is determined. The ticks are patted on the ground of the tubes and are incubated on a heating plate at 45-50° C. for at most 5 minutes. Immotile or uncoordinated moving ticks, which are not able to escape the heat by climbing upwards, are marked as dead or moribund.
An efficacy of 100% means all ticks are dead or moribund; 0% means no ticks are dead or moribund.

[6] = system: adult unfed cat fleas (Ctenocephalides felis); assay: Ctenocephalides felis oral test; settings: 48 h
In short: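 About 20 adult unfed fleas fed through parafilm on cattle blood containing compound (DMSO stock diluted in blood), blood held at 37 °C and fleas at room temperature. Mortality (%) scored after 2 days.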

[7] = system: fall armyworm larvae (Spodoptera frugiperda); assay: Spodoptera frugiperda spray test (maize leaf sections); settings: 168 h
In short: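 Percent kill of Spodoptera frugiperda caterpillars read at day 7. Larvae placed on dried Zea mays leaf pieces previously sprayed with test preparation, made from acetone plus DMF and diluted with emulsifier-containing water (1000 ppm).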

[8] = system: Rhipicephalus microplus larvae (strain Parkhurst, resistant against synthetic pyrethroids); assay: Rhipicephalus (Boophilus) microplus in-vitro contact test, larval cattle tick; settings: 5 μg/cm^2 (=500 g/ha), after 48 hours, read-out: efficacy (larvae dead or moribund)
In short: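 Larvae (20–50 per tube) were exposed for 48 h at 27 °C and 85% relative humidity to dried acetone residues lining glass tubes, where 900 ppm corresponds to 5 μg/cm^2. Loss of negative geotaxis defined dead or moribund larvae, expressed as percent efficacy.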

[9] = system: green peach aphid (Myzus persicae); assay: Myzus persicae oral test; settings: 120 h
In short: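 Compound was dissolved in acetone, diluted with water and mixed into IPL41 insect medium with sugar under a parafilm seal. A mixed aphid population fed through the parafilm, and mortality (%) was scored after 5 days.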

[10] = system: adult mosquitoes Aedes aegypti strain MONHEIM; assay: Aedes aegypti test (AEDSAE surface treatment & contact assay); settings: 24 hours after contact, read-out: efficacy (mortality)
Description: Aedes aegypti test (AEDSAE surface treatment & contact assay) • Solvent: Aceton+2000 ppm rapeseed oil methyl ester (RME)
In order to produce a sufficient, active ingredient containing solution it is necessary to solve the test compound in the solvent-mix (acetone at 2 mg/ml/RME 2000 ppm). This solution is pipetted onto a glazed tile and after evaporation of the acetone, adult mosquitoes of the species Aedes aegypti strain MONHEIM are placed onto the dried surface. The exposure time is 30 minutes.
Mortality in percent (%) is determined 24 hours after contact of the insects to the treated surface. 100% mortality means that all tested insects are dead, whereas 0% means that no insect died.

[11] = system: adult flies Musca domestica strain WHO-N; assay: Musca domestica test (MUSCDO surface treatment & contact assay); settings: 24 hours after contact, read-out: efficacy (mortality)
In short: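 Percent kill read 24 h post-contact, after adult flies (strain WHO-N) spent 30 min on a glazed tile treated with test solution (acetone, 2 mg/ml, plus 2000 ppm rapeseed oil methyl ester) and dried.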

[12] = system: green peach aphid (Myzus persicae); assay: Myzus persicae spray test; settings: foliar, 120 h, Chinese cabbage leaf disks, after 5 days
In short: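 Percent mortality read 5 days after spraying, where 100% is total kill and 0% none. The spray contained compound in acetone plus dimethylformamide, diluted with 1000 ppm emulsifier water. It was applied to Brassica pekinensis leaf disks carrying mixed-instar green peach aphids.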

[13] = system: larvae of the southern green stink bug (Nezara viridula); assay: Nezara viridula spray test; settings: in Hordeum vulgare, 96 h
In short: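 Mortality (%) of stink bug larvae on treated barley (Hordeum vulgare) was scored 4 days after infestation. Test solutions came from an acetone/DMF concentrate diluted with water containing 1000 ppm emulsifier and were sprayed onto plants before larvae were added.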

[14] = surface concentration 4 mg/m^2, 30 min exposure
[15] = surface concentration 20 mg/m^2, 30 min exposure

Structure (SMILES) | pest or weed control at 0.004 mg [1] [%] | mortality at 100 g/ha ([2]; 100 g/ha) [%] | pest or weed control at 32 µg/disc, 100 g/ha [3] [%] | efficacy (fleas dead or moribund) [4] [%] | pest or weed control at 5 µg/cm2, 500 g/ha [5] [%] | mortality at 100 ppm [6] [%] | mortality at 100 g/ha [7] [%] | pest or weed control at 5 µg/cm2 [8] [%] | mortality at 4 ppm [9] [%] | mortality at 4 mg/m2 [10, 14] [%] | mortality at 20 mg/m2 [10, 15] [%] | mortality at 4 mg/m2 [11, 14] [%] | mortality at 20 mg/m2 [11, 15] [%] | mortality at 100 g/ha [12] [%] | mortality at 500 g/ha [2] [%] | mortality at 100 g/ha [13] [%] | mortality at 500 g/ha [13] [%]
Cc1nc([C@H](C)NC(=O)c2cc(C(F)(F)F)cc(C(F)(F)F)c2)n(-c2ncc(C(=O)N(C)C(C)C)s2)n1 [I-10] | 100 | 90 | 100 | 90 | 100 | 100 | 100 | 100 |  |  |  |  |  |  |  |  | 
Cc1nc([C@H](C)NC(=O)c2cc(Br)cc(C#N)c2)n(-c2ncc(C#N)s2)n1 [I-15] | 100 |  | 100 | 100 | 100 | 100 | 83 | 90 |  |  |  |  |  |  |  |  | 
Cc1nc([C@H](C)NC(=O)c2cc(Br)cc(OC(F)(F)F)c2)n(-c2ncc(C#N)s2)n1 [I-17] | 100 |  | 100 | 80 | 100 | 100 | 100 | 100 | 100 |  |  |  |  |  |  |  | 
Cc1nc([C@H](C)NC(=O)c2cc(Cl)cc(C(F)F)c2)n(-c2ncc(C#N)s2)n1 [I-18] | 100 |  | 100 |  | 100 | 100 | 100 | 100 | 100 | 80 to 100 | 80 to 100 | 90 to 100 | 80 to 100 | 100 |  |  | 
Cc1nc([C@H](C)NC(=O)c2cc(Cl)cc(C(F)(F)F)c2)n(-c2ncc(C(=O)N(C)CC#N)s2)n1 [I-23] | 100 |  | 100 | 100 | 100 | 90 | 83 | 100 | 100 |  |  |  |  | 90 |  |  | 
Cc1nc([C@H](C)NC(=O)c2cc(OC(F)(F)F)cc(C3CC3)c2)n(-c2ncc(C(=O)N(C)CC#N)s2)n1 [I-24, N-(cyanomethyl)-2-(5-{(1S)-1-[3-cyclopropyl-5-(trifluoromethoxy)benzamido]ethyl}-3-methyl-1H-1,2,4-triazol-1-yl)-N-methyl-1,3-thiazole-5-carboxamide] | 100 |  | 100 | 100 | 80 | 100 | 100 | 100 | 100 |  |  |  |  | 100 |  |  | 
C[C@H](NC(=O)c1cc(C(F)(F)F)cc(S(C)(=O)=O)c1)c1ncnn1-c1ncc(C(=O)N(C)C)s1 [I-65] |  |  | 100 | 100 |  |  | 100 |  |  |  |  |  |  | 100 | 90 | 100 | 100
CNC(=O)c1cnc(-n2nc(C)nc2[C@H](C)NC(=O)c2cc(C(F)(F)F)cc(C(F)(F)F)c2)s1 [I-102] |  |  | 100 | 100 |  |  | 100 | 100 |  |  |  |  |  | 90 | 100 |  | 100
CNC(=O)c1cnc(-n2ncnc2[C@H](C)NC(=O)c2cc(OC(F)(F)F)cc(S(C)(=O)=O)c2)s1 [I-113] |  |  | 100 |  |  |  |  |  |  |  |  |  |  | 100 | 100 | 100 | 100
C[C@H](NC(=O)c1cc(OC(F)F)cc(OC(F)F)c1)c1ncnn1-c1ncc(C(=O)N(C)C)s1 [I-119] |  |  | 100 |  |  |  | 100 |  |  |  |  |  |  | 90 | 100 | 100 | 100
C[C@H](NC(=O)c1cc(OC(F)(F)F)cc(S(C)(=O)=O)c1)c1ncnn1-c1ncc(C(=O)N(C)C)s1 [I-120] |  |  |  |  |  |  | 100 |  |  |  |  |  |  | 90 | 100 | 100 | 100
Cc1nc([C@H](C)NC(=O)c2cc(OC(F)(F)F)cc(C3CC3)c2)n(-c2ncc(C(=O)N(C)CC3CC3)s2)n1 [I-128] |  |  | 100 |  |  |  | 100 |  |  |  |  |  |  | 90 | 100 | 90 | 100
CCN(C)C(=O)c1cnc(-n2nc(C)nc2[C@H](C)NC(=O)c2cc(OC(F)(F)F)cc(C3CC3)c2)s1 [I-129] |  |  | 100 |  |  |  | 100 |  |  |  |  |  |  | 100 | 100 |  | 
C[C@H](NC(=O)c1cc(S(=O)(=O)C(F)(F)F)cc(S(=O)(=O)C(F)(F)F)c1)c1ncnn1-c1ncc(C#N)s1 [I-138] |  |  | 100 |  |  |  | 100 |  |  |  |  |  |  |  | 100 |  | 
Cc1nc([C@H](C)NC(=O)c2cc(C(F)(F)F)cc(S(C)(=O)=O)c2)n(-c2ncc(C#N)s2)n1 [I-165] |  |  | 100 |  |  |  | 100 |  |  |  |  |  |  |  | 100 |  | 100
